Test results: the NIST ThermoML archive (doi:10.1016/j.jct.2013.01.026)
± gives the expanded uncertainty stated by the source.

What was measured:
[1] = refractive index (other wavelength) (dimensionless); conditions: 298.15 K, 101.3 kPa, Liquid, Standard Abbe refractometry
[2] = refractive index (other wavelength) (dimensionless); wn = mass fraction of the nth substance listed; conditions: 298.15 K, 101.3 kPa, Liquid, Standard Abbe refractometry

Question: Which refractive index ([1]; Wavelength=670 nm) does the source give for `CCCCCCCCCCCC` [dodecane] here?
Answer: 1.41845 ± 0.00039

Question: And the refractive index ([1]; Wavelength=925 nm)?
Answer: 1.41407 ± 0.00039

Question: With `CC(C)Cc1ccccc1` [(2-methylpropyl)benzene] + c1ccc2c(c1)CCCC2 as the molecule, how does the refractive index ([2]; Wavelength=670 nm, w2 = 0) read?
Answer: 1.48071 ± 0.00035

Question: And the refractive index ([2]; Wavelength=670 nm, w2 = 0.1003)?
Answer: 1.48573 ± 0.00036

Question: What about the refractive index ([2]; Wavelength=670 nm, w2 = 0.2) of the same molecule?
Answer: 1.49084 ± 0.00037

Question: What about the refractive index ([2]; Wavelength=670 nm, w2 = 0.2999) of the same molecule?
Answer: 1.49587 ± 0.00039

Question: And the refractive index ([2]; Wavelength=670 nm, w2 = 0.3977)?
Answer: 1.50109 ± 0.0004

Question: And the refractive index ([2]; Wavelength=670 nm, w2 = 0.4996)?
Answer: 1.50663 ± 0.00042

Question: And the refractive index ([2]; Wavelength=670 nm, w2 = 0.6002)?
Answer: 1.51197 ± 0.00044

Question: What about the refractive index ([2]; Wavelength=670 nm, w2 = 0.699) of the same molecule?
Answer: 1.51743 ± 0.00046

Question: What about the refractive index ([2]; Wavelength=670 nm, w2 = 0.8001) of the same molecule?
Answer: 1.52313 ± 0.00048

Question: What about the refractive index ([2]; Wavelength=670 nm, w2 = 0.8997) of the same molecule?
Answer: 1.52865 ± 0.0005

Question: And the refractive index ([2]; Wavelength=925 nm, w2 = 0)?
Answer: 1.47345 ± 0.00035

Question: What about the refractive index ([2]; Wavelength=925 nm, w2 = 0.1003) of the same molecule?
Answer: 1.47803 ± 0.00036

Question: What about the refractive index ([2]; Wavelength=925 nm, w2 = 0.2) of the same molecule?
Answer: 1.48337 ± 0.00038

Question: And the refractive index ([2]; Wavelength=925 nm, w2 = 0.2999)?
Answer: 1.48805 ± 0.00039

Question: What about the refractive index ([2]; Wavelength=925 nm, w2 = 0.3977) of the same molecule?
Answer: 1.49344 ± 0.0004

Question: And the refractive index ([2]; Wavelength=925 nm, w2 = 0.4996)?
Answer: 1.49865 ± 0.00042

Question: And the refractive index ([2]; Wavelength=925 nm, w2 = 0.6002)?
Answer: 1.50413 ± 0.00044

Question: And the refractive index ([2]; Wavelength=925 nm, w2 = 0.699)?
Answer: 1.5092 ± 0.00046

Question: What about the refractive index ([2]; Wavelength=925 nm, w2 = 0.8001) of the same molecule?
Answer: 1.51499 ± 0.00048

Question: What about the refractive index ([2]; Wavelength=925 nm, w2 = 0.8997) of the same molecule?
Answer: 1.52005 ± 0.0005

Question: With `c1ccc2c(c1)CCCC2` [1,2,3,4-tetrahydronaphthalene] + CCCCCCCCCCCC as the molecule, how does the refractive index ([2]; Wavelength=670 nm, w2 = 0) read?
Answer: 1.53479 ± 0.00052

Question: And the refractive index ([2]; Wavelength=670 nm, w2 = 0.1)?
Answer: 1.51956 ± 0.00051

Question: What about the refractive index ([2]; Wavelength=670 nm, w2 = 0.1999) of the same molecule?
Answer: 1.505 ± 0.0005

Question: What about the refractive index ([2]; Wavelength=670 nm, w2 = 0.2999) of the same molecule?
Answer: 1.49244 ± 0.00048

Question: What about the refractive index ([2]; Wavelength=670 nm, w2 = 0.4001) of the same molecule?
Answer: 1.47987 ± 0.00047

Question: And the refractive index ([2]; Wavelength=670 nm, w2 = 0.4999)?
Answer: 1.46832 ± 0.00045

Question: And the refractive index ([2]; Wavelength=670 nm, w2 = 0.6002)?
Answer: 1.45728 ± 0.00044

Question: And the refractive index ([2]; Wavelength=670 nm, w2 = 0.6999)?
Answer: 1.44674 ± 0.00043

Question: What about the refractive index ([2]; Wavelength=670 nm, w2 = 0.8) of the same molecule?
Answer: 1.43694 ± 0.00042

Question: What about the refractive index ([2]; Wavelength=670 nm, w2 = 0.9001) of the same molecule?
Answer: 1.42736 ± 0.0004

Question: And the refractive index ([2]; Wavelength=925 nm, w2 = 0)?
Answer: 1.52642 ± 0.00052

Question: What about the refractive index ([2]; Wavelength=925 nm, w2 = 0.1) of the same molecule?
Answer: 1.51181 ± 0.00051

Question: And the refractive index ([2]; Wavelength=925 nm, w2 = 0.1999)?
Answer: 1.49762 ± 0.00049

Question: What about the refractive index ([2]; Wavelength=925 nm, w2 = 0.2999) of the same molecule?
Answer: 1.48558 ± 0.00048

Question: What about the refractive index ([2]; Wavelength=925 nm, w2 = 0.4001) of the same molecule?
Answer: 1.47343 ± 0.00047

Question: And the refractive index ([2]; Wavelength=925 nm, w2 = 0.4999)?
Answer: 1.4622 ± 0.00045

Question: And the refractive index ([2]; Wavelength=925 nm, w2 = 0.6002)?
Answer: 1.45157 ± 0.00044

Question: What about the refractive index ([2]; Wavelength=925 nm, w2 = 0.6999) of the same molecule?
Answer: 1.44149 ± 0.00043

Question: And the refractive index ([2]; Wavelength=925 nm, w2 = 0.8)?
Answer: 1.43179 ± 0.00042

Question: And the refractive index ([2]; Wavelength=925 nm, w2 = 0.9001)?
Answer: 1.42273 ± 0.0004

Question: Which refractive index ([2]; Wavelength=670 nm, w1 = 1) does the source give for `CCCCCCCCCCCC` [dodecane] + CC(C)Cc1ccccc1 here?
Answer: 1.41845 ± 0.00039

Question: And the refractive index ([2]; Wavelength=925 nm, w1 = 1)?
Answer: 1.41407 ± 0.00039

Question: Which refractive index ([2]; Wavelength=670 nm, w2 = 0.0998) does the source give for `CC(C)Cc1ccccc1` [(2-methylpropyl)benzene] + CCCCCCCCCCCC here?
Answer: 1.47308 ± 0.00036

Question: What about the refractive index ([2]; Wavelength=670 nm, w2 = 0.2001) of the same molecule?
Answer: 1.46588 ± 0.00036

Question: And the refractive index ([2]; Wavelength=670 nm, w2 = 0.3002)?
Answer: 1.45898 ± 0.00036

Question: And the refractive index ([2]; Wavelength=670 nm, w2 = 0.4)?
Answer: 1.45233 ± 0.00037

Question: What about the refractive index ([2]; Wavelength=670 nm, w2 = 0.4999) of the same molecule?
Answer: 1.44607 ± 0.00037

Question: What about the refractive index ([2]; Wavelength=670 nm, w2 = 0.6) of the same molecule?
Answer: 1.44006 ± 0.00037

Question: What about the refractive index ([2]; Wavelength=670 nm, w2 = 0.7001) of the same molecule?
Answer: 1.43407 ± 0.00038

Question: And the refractive index ([2]; Wavelength=670 nm, w2 = 0.8002)?
Answer: 1.42875 ± 0.00038

Question: And the refractive index ([2]; Wavelength=670 nm, w2 = 0.9001)?
Answer: 1.42337 ± 0.00039

Question: What about the refractive index ([2]; Wavelength=925 nm, w2 = 0.0998) of the same molecule?
Answer: 1.46604 ± 0.00036

Question: And the refractive index ([2]; Wavelength=925 nm, w2 = 0.2001)?
Answer: 1.45912 ± 0.00036

Question: What about the refractive index ([2]; Wavelength=925 nm, w2 = 0.3002) of the same molecule?
Answer: 1.45266 ± 0.00036

Question: What about the refractive index ([2]; Wavelength=925 nm, w2 = 0.4) of the same molecule?
Answer: 1.44638 ± 0.00037

Question: And the refractive index ([2]; Wavelength=925 nm, w2 = 0.4999)?
Answer: 1.44043 ± 0.00037

Question: And the refractive index ([2]; Wavelength=925 nm, w2 = 0.6)?
Answer: 1.43444 ± 0.00037

Question: What about the refractive index ([2]; Wavelength=925 nm, w2 = 0.7001) of the same molecule?
Answer: 1.42884 ± 0.00038

Question: And the refractive index ([2]; Wavelength=925 nm, w2 = 0.8002)?
Answer: 1.42387 ± 0.00038

Question: What about the refractive index ([2]; Wavelength=925 nm, w2 = 0.9001) of the same molecule?
Answer: 1.4187 ± 0.00039

Question: With `CC(C)Cc1ccccc1` [(2-methylpropyl)benzene] as the molecule, how does the refractive index ([1]; Wavelength=670 nm) read?
Answer: 1.48071 ± 0.00035

Question: And the refractive index ([1]; Wavelength=925 nm)?
Answer: 1.47345 ± 0.00035

Question: Which refractive index ([1]; Wavelength=670 nm) does the source give for `c1ccc2c(c1)CCCC2` [1,2,3,4-tetrahydronaphthalene] here?
Answer: 1.53479 ± 0.00052

Question: And the refractive index ([1]; Wavelength=925 nm)?
Answer: 1.52642 ± 0.00052
